{"source": "patent US6417167B1", "about": "“Lyophilized compositions containing shingoglycolipid and process for preparing them” (Kirin Beer Kabushiki Kaisha, priority 1997, dated 2002)", "format_in_all_cases": "physicochemical", "key": {"[1]": {"assay": "Excipient appropriate to lyophilization 1: re-solubility immediately after lyophilization", "conditions": "KRN7000 200 μg/ml, Polysorbate 20 0.5%", "procedure": "A variety of monosaccharides and disaccharides were used for examination of excipients of the lyophilized preparation. In this context, the active component (KRN7000) was set at the concentration of 200 μg/ml, and Polysorbate 20 which is used only in a limited amount from the viewpoint of safety was set at the concentration of 0.5% in the following examination.\n(§1) First, Polysorbate 20 was dissolved in distilled water in a concentration of 0.5%, and the saccharides were dissolved in such concentrations as listed in Table 6. Next, 20 mg of the active component (KRN7000) was weighed and stirred in 100 ml of the solvents in a heated bath to 80° C. for 20 minutes in order to form a solution. After cooling with running water, the mixture was filtered through a 0.22 μm filter, and transparent colorless glass vials having a volume of 5 ml were charged with a 1 ml portion of each of a variety of solutions thus obtained and subjected to lyophilization. Lyophilization was carried out under the condition of preliminary freezing at −40° C. for 2 hours and drying at −20° C. for 24 hours, 10° C. for 12 hours, and finally at 25° C. for 5 hours to give the lyophilized product. The degree of vacuum was set at 0.1 Torr or less during drying step.\nAfter the lyophilization step, the lyophilized composition was reconstituted in 1 ml of distilled water for injection, left standing for 30 minutes, and solubility was judged when the foams generated on reconstitution disappeared.\n(§2) The solubility was judged by cleaning the outside of the vial and placing it beneath the white light source in a darkroom for observation with naked eye at the position of a luminous intensity of about 5,000 lux. When the sample was clear with no precipitates, it was judged that the active component was dissolved."}, "[2]": {"assay": "Optimal amount of Polysorbate 20: solubility of solutions after storage, by naked eye", "set-up": "key: +: not dissolved (or deposited); −: dissolved", "conditions": "KRN7000 200 μg/ml, stored as solution 25° C.", "procedure": "Next, 20 mg of the active component (KRN7000) was weighed and stirred in 100 ml of the Polysorbate solutions having a variety of concentrations in a heated bath at 80° C. for 20 minutes in order to form a solution. After cooling with running water, the mixture was filtered through a 0.22 μm filter, and transparent colorless glass vials having a volume of 5 ml were charged with a 2 ml portion of each of a variety of solutions and sealed up.\nThese samples were stored at 25° C. for 2 weeks, and judged of their solubility. The samples judged in solution were further stored, and judged again of their solubility after 1 month.\nThe solubility was judged by cleaning the outside of the vial and placing it beneath the white light source in the darkroom for observation with naked eye at the position of a luminous intensity of about 5,000 lux. When the sample was clear with no precipitates, it was judged that the active component was dissolved.\nIn the table, the variations with the passage of time after storage represent the solubility when stored in the form of solution."}, "[3]": {"assay": "Additives for improving re-solubility during storage, sucrose as excipient", "conditions": "lyophilized, Polysorbate 20 0.5%, Sucrose 9.6%", "procedure": "as §1, with “sucrose and a variety of additives” for “the saccharides were dissolved in”, “9.” for “6.”\nAfter the lyophilization step, the lyophilized composition thus obtained was stored at 25° C. or 50° C. , or at both of these temperatures. After storage at 25° C. for 1 month or at 50° C. for 3 days, the lyophilized composition was reconstituted in 1 ml of distilled water for injection, left standing for 30 minutes, and solubility was judged when the foams generated on reconstitution disappeared. The samples judged in solution were further stored, and judged again of their solubility after storage at 25° C. for 4 months or at 50° C. for 2 weeks.\nas §2"}}}
{"smiles": "CCCCCCCCCCCCCCCCCCCCCCCCCC(=O)N[C@@H](CO[C@H]1O[C@H](CO)[C@H](O)[C@H](O)[C@H]1O)[C@H](O)[C@H](O)CCCCCCCCCCCCCC", "note": "[KRN7000, (2S,3S,4R)-1-(α-D-galactopyranosyloxy)-2-hexacosanoylamino-3,4-octadecanediol]", "values": [{"measurement": "Re-solubility immediately after lyophilization", "setting": "[1]; excipient Fructose 5%", "value": "+ (not dissolved (or deposited))"}, {"measurement": "Re-solubility immediately after lyophilization", "setting": "[1]; excipient Fructose 10%", "value": "+ (not dissolved (or deposited))"}, {"measurement": "Re-solubility immediately after lyophilization", "setting": "[1]; excipient Glucose 5%", "value": "− (dissolved)"}, {"measurement": "Re-solubility immediately after lyophilization", "setting": "[1]; excipient Glucose 10%", "value": "+ (not dissolved (or deposited))"}, {"measurement": "Re-solubility immediately after lyophilization", "setting": "[1]; excipient Lactose 5%", "value": "+ (not dissolved (or deposited))"}, {"measurement": "Re-solubility immediately after lyophilization", "setting": "[1]; excipient Lactose 10%", "value": "+ (not dissolved (or deposited))"}, {"measurement": "Re-solubility immediately after lyophilization", "setting": "[1]; excipient Maltose 1.5%", "value": "+ (not dissolved (or deposited))"}, {"measurement": "Re-solubility immediately after lyophilization", "setting": "[1]; excipient Maltose 3%", "value": "+ (not dissolved (or deposited))"}, {"measurement": "Re-solubility immediately after lyophilization", "setting": "[1]; excipient Mannitol 5%", "value": "+ (not dissolved (or deposited))"}, {"measurement": "Re-solubility immediately after lyophilization", "setting": "[1]; excipient Mannitol 10%", "value": "− (dissolved)"}, {"measurement": "Re-solubility immediately after lyophilization", "setting": "[1]; excipient Sorbitol 5%", "value": "+ (not dissolved (or deposited))"}, {"measurement": "Re-solubility immediately after lyophilization", "setting": "[1]; excipient Sorbitol 10%", "value": "+ (not dissolved (or deposited))"}, {"measurement": "Re-solubility immediately after lyophilization", "setting": "[1]; excipient Sucrose 4.8%", "value": "− (dissolved)"}, {"measurement": "Re-solubility immediately after lyophilization", "setting": "[1]; excipient Sucrose 9.6%", "value": "− (dissolved)"}, {"measurement": "Re-solubility immediately after lyophilization", "setting": "[1]; excipient Xylitol 4.3%", "value": "+ (not dissolved (or deposited))"}, {"measurement": "Re-solubility immediately after lyophilization", "setting": "[1]; excipient Xylitol 8.6%", "value": "+ (not dissolved (or deposited))"}, {"measurement": "Variation with the passage of time after storage (by naked eye)", "setting": "[2]; Polysorbate 20 0.1%, 2 weeks", "value": "+"}, {"measurement": "Variation with the passage of time after storage (by naked eye)", "setting": "[2]; Polysorbate 20 0.2%, 2 weeks", "value": "+"}, {"measurement": "Variation with the passage of time after storage (by naked eye)", "setting": "[2]; Polysorbate 20 0.3%, 1 month", "value": "+"}, {"measurement": "Variation with the passage of time after storage (by naked eye)", "setting": "[2]; Polysorbate 20 0.3%, 2 weeks", "value": "−"}, {"measurement": "Variation with the passage of time after storage (by naked eye)", "setting": "[2]; Polysorbate 20 0.5%, 1 month", "value": "+"}, {"measurement": "Variation with the passage of time after storage (by naked eye)", "setting": "[2]; Polysorbate 20 0.5%, 2 weeks", "value": "−"}, {"measurement": "Variation with the passage of time after storage (by naked eye)", "setting": "[2]; Polysorbate 20 1.0%, 1 month", "value": "+"}, {"measurement": "Variation with the passage of time after storage (by naked eye)", "setting": "[2]; Polysorbate 20 1.0%, 2 weeks", "value": "−"}, {"measurement": "Variation with the passage of time after storage (by naked eye)", "setting": "[2]; Polysorbate 20 2.0%, 1 month", "value": "+"}, {"measurement": "Variation with the passage of time after storage (by naked eye)", "setting": "[2]; Polysorbate 20 2.0%, 2 weeks", "value": "−"}, {"measurement": "Variation with the passage of time after storage (by naked eye)", "setting": "[2]; Polysorbate 20 4.0%, 1 month", "value": "+"}, {"measurement": "Variation with the passage of time after storage (by naked eye)", "setting": "[2]; Polysorbate 20 4.0%, 2 weeks", "value": "−"}, {"measurement": "Variation with the passage of time after storage (by naked eye)", "setting": "[2]; Polysorbate 20 8.0%, 1 month", "value": "+"}, {"measurement": "Variation with the passage of time after storage (by naked eye)", "setting": "[2]; Polysorbate 20 8.0%, 2 weeks", "value": "−"}, {"measurement": "Re-solubility after storage (by naked eye)", "setting": "[3]; Arginine, 0.1%, 50° C., 3 days", "value": "+ (not dissolved (or deposited))"}, {"measurement": "Re-solubility after storage (by naked eye)", "setting": "[3]; Glycerol, 1%, 25° C., 1 month", "value": "+ (not dissolved (or deposited))"}, {"measurement": "Re-solubility after storage (by naked eye)", "setting": "[3]; Glycine, 0.1%, 50° C., 3 days", "value": "+ (not dissolved (or deposited))"}, {"measurement": "Re-solubility after storage (by naked eye)", "setting": "[3]; Glycine, 1%, 50° C., 3 days", "value": "+ (not dissolved (or deposited))"}, {"measurement": "Re-solubility after storage (by naked eye)", "setting": "[3]; Histidine, 2%, 50° C., 2 weeks", "value": "− (dissolved)"}, {"measurement": "Re-solubility after storage (by naked eye)", "setting": "[3]; Histidine, 2%, 50° C., 3 days", "value": "− (dissolved)"}, {"measurement": "Re-solubility after storage (by naked eye)", "setting": "[3]; Pluronic F68, 0.1%, 25° C., 1 month", "value": "− (dissolved)"}, {"measurement": "Re-solubility after storage (by naked eye)", "setting": "[3]; Pluronic F68, 0.1%, 25° C., 4 month", "value": "+ (not dissolved (or deposited))"}, {"measurement": "Re-solubility after storage (by naked eye)", "setting": "[3]; Pluronic F68, 1%, 25° C., 1 month", "value": "− (dissolved)"}, {"measurement": "Re-solubility after storage (by naked eye)", "setting": "[3]; Pluronic F68, 1%, 25° C., 4 month", "value": "+ (not dissolved (or deposited))"}, {"measurement": "Re-solubility after storage (by naked eye)", "setting": "[3]; Propylene glycol, 1%, 25° C., 1 month", "value": "+ (not dissolved (or deposited))"}, {"measurement": "Re-solubility after storage (by naked eye)", "setting": "[3]; Sodium deoxycholate, 0.1%, 25° C., 1 month", "value": "− (dissolved)"}, {"measurement": "Re-solubility after storage (by naked eye)", "setting": "[3]; Sodium deoxycholate, 0.1%, 25° C., 4 month", "value": "+ (not dissolved (or deposited))"}, {"measurement": "Re-solubility after storage (by naked eye)", "setting": "[3]; Sodium deoxycholate, 1%, 25° C., 1 month", "value": "− (dissolved)"}, {"measurement": "Re-solubility after storage (by naked eye)", "setting": "[3]; Sodium deoxycholate, 1%, 25° C., 4 month", "value": "− (dissolved)"}, {"measurement": "Re-solubility after storage (by naked eye)", "setting": "[3]; Sodium deoxycholate, 1%, 50° C., 2 weeks", "value": "− (dissolved)"}, {"measurement": "Re-solubility after storage (by naked eye)", "setting": "[3]; Sodium deoxycholate, 1%, 50° C., 3 days", "value": "− (dissolved)"}, {"measurement": "Re-solubility after storage (by naked eye)", "setting": "[3]; no additive, 25° C., 1 month", "value": "− (dissolved)"}, {"measurement": "Re-solubility after storage (by naked eye)", "setting": "[3]; no additive, 25° C., 4 month", "value": "+ (not dissolved (or deposited))"}, {"measurement": "Re-solubility after storage (by naked eye)", "setting": "[3]; no additive, 50° C., 3 days", "value": "+ (not dissolved (or deposited))"}]}
